Experimental data published in patent publication US8420592B2, “Methods of treatment using single doses of oritavancin” (The Medicines Company, priority 2008, dated 2013).
In brackets after ≈: the same amount, converted by molar mass.

Experiments:
[1] = tested on: MSSA (S. aureus ATCC13709 and clinical MSSA strains); assay: Neutropenic-mouse thigh infection model; type: in vivo, Staphylococcus aureus; conditions: for Log kill / Mean Log CFU/thigh from baseline: 72 h; for Log kill: S. aureus ATCC13709; for Mean Log CFU/thigh from baseline: MSSA (3 strains)
Experimental: (§1) Methods: Thigh infection was established for 14 clinical SA isolates (3 MSSA and 11 MRSA; MICs 0.0015 to 2 μg/mL) in neutropenic CD-1 mice (n=3/group) with 5×10^5 colony forming units (CFU) of cells. Single intravenous doses of ORI (0.5 to 40 mg/kg) were tested against one MSSA and one MRSA strain. […] Both thighs were harvested and CFU counts were evaluated after 24 h (single doses) or 72 h (HEQ doses) treatment.
(§2) In vivo studies: All studies were performed in accordance with protocols that were approved by the Institutional Animal Care and Use Committee. Thigh infection was established for 14 clinical S. aureus isolates in neutropenic CD-1 mice (19-21 g, n=3/group) with 5×10^5 colony forming units (CFU) of cells in both thighs. In the single dose-response study, the number of bacteria/thigh was monitored 24 h post-infection (PI). In the human equivalent (HEQ) dose-ranging study, the bacterial titer was determined in mouse thighs at 2, 4, 8, 12, 24, 48 and 72 h PI. Thighs were serially diluted and plated on Baird-Parker agar plates to determine the bacterial titer. The limit of detection was 1.69 Log10 CFU/thigh. Bacterial titer decreases were calculated (compared to starting inoculum) in thighs at 72 h PI for each HEQ dose regimen of ORI.
(§3) Antibiotherapy: 1) In the single dose response study, mice were treated intravenously (IV) with ORI at doses ranging from 0.4 to 40 mg/kg at lh PI. 2) In the HEQ dose-ranging study, starting at 1 h PI, the mice received a multiple IV dose regimen to simulate human drug concentration profile. […]
(§4) Data analysis: The inhibitiory sigmoid Emax model was used to calculate the ED50 of oritavancin (dose resulting in 50% of the maximal bacterial killing) ±95% confidence interval by using the GraphPad Prism software. The statistical calculations to compare bacterial titer from each experimental group were performed according to the Mann-Whitney U test by using StatsDirect software. p-values below 0.05 were considered significant.

[2] = tested on: MRSA (S. aureus NRS123 and clinical MRSA strains); assay: Neutropenic-mouse thigh infection model; type: in vivo, Staphylococcus aureus; conditions: for Mean Log CFU/thigh from baseline: 72 h
Experimental: as §1, §2, §3, §4

S. aureus = assay: MIC by broth microdilution with 0.002% polysorbate-80, baseline isolates of MITT population; type: cell-based; conditions: Staphylococcus aureus; all S. aureus
Experimental: (§5) Blood and infection site cultures were obtained within three days of enrollment (often done at the time of enrollment). End-of-therapy, TOC, and late follow-up (or at early relapse) cultures were obtained from the infection site if clinically indicated. […] Specimens were cultured and pathogens were identified at each investigative site's certified laboratory. All isolated gram-positive pathogen(s) that were obtained from the infection site at baseline/randomization and up to and including the TOC time point were subcultured and sent to a central laboratory (Covance Clinical Laboratories, Indianapolis, Ind.) for confirmatory identification and susceptibility testing. In cases of discrepancy between the local and the central laboratory, central laboratory results were used.
(§6) At least one gram-positive organism was isolated from the infection site at baseline in 209 patients (69.2%) in the ITT population. The most commonly isolated pathogen was S. aureus, which was isolated from 87.6% (183/209) of MITT patients. MRSA was isolated in 49% (103/209) of MITT patients. The other three most common pathogens identified in the MITT population were Streptococcus pyogenes (5.7%, 12/209), Streptococcus agalactiae (3.8%, 8/209) and Enterococcus faecalis (3.8%, 8/209). The range of oritavancin minimum inhibitory concentrations (MICs) for S. aureus in the MITT population, as assessed using broth microdilution with 0.002% polysorbate-80, was 0.008 to 0.5 μg/mL.

MSSA = assay: as above; type: cell-based; conditions: Staphylococcus aureus; MSSA subset
Experimental: as §5, §6

MRSA = assay: as above; type: cell-based; conditions: Staphylococcus aureus; MRSA subset
Experimental: as §5, §6

**Q.** Which results are given for `CN[C@H](CC(C)C)C(=O)N[C@H]1C(=O)N[C@@H](CC(N)=O)C(=O)N[C@H]2C(=O)N[C@H]3C(=O)N[C@H](C(=O)N[C@H](C(=O)O)c4cc(O)cc(O)c4-c4cc3ccc4O)[C@H](O[C@H]3C[C@](C)(N)[C@@H](O)[C@H](C)O3)c3ccc(c(Cl)c3)Oc3cc2cc(c3O[C@@H]2O[C@H](CO)[C@@H](O)[C@H](O)[C@H]2O[C@H]2C[C@](C)(NCc3ccc(-c4ccc(Cl)cc4)cc3)[C@@H](O)[C@H](C)O2)Oc2ccc(cc2Cl)[C@H]1O` [Oritavancin, N-(4-(4-chlorophenyl)benzyl)A82846B]?
**A.** Log kill ([1]; HEQ dose 200 mg): > 2 Log; Log kill ([1]; HEQ dose 400 mg): > 2 Log; Log kill ([1]; HEQ dose 1200 mg): > 2 Log; Mean Log CFU/thigh from baseline ([1]; HEQ dose 100 mg × 3 days): 1.5 Log CFU/thigh; Mean Log CFU/thigh from baseline ([1]; HEQ dose 200 mg × 3 days): −0.1 Log CFU/thigh; Mean Log CFU/thigh from baseline ([1]; HEQ dose 400 mg × 3 days): −1.6 Log CFU/thigh; Mean Log CFU/thigh from baseline ([1]; HEQ dose 1200 mg × 1 day): −2.7 Log CFU/thigh; ED50 ([1]; Staphylococcus aureus, single IV dose 1 h post-infection, 24 h readout, S. aureus ATCC13709 (MSSA), neutropenic CD-1 mice, 95% CI in brackets, read-out: ED50 (dose resulting in 50% of the maximal killing)): 5.8 mg/kg; ED50 (dose resulting in 50% of the maximal killing) ([1]; single IV dose 1 h post-infection, 24 h readout, S. aureus ATCC13709 (MSSA), neutropenic CD-1 mice, 95% CI in brackets): 5.8 (3.3-10) mg/kg; Mean Log CFU/thigh from baseline ([2]; MRSA (3 strains), HEQ dose 100 mg × 3 days): 0.8 Log CFU/thigh; Mean Log CFU/thigh from baseline ([2]; MRSA (3 strains), HEQ dose 400 mg × 3 days): −2.8 Log CFU/thigh; Mean Log CFU/thigh from baseline ([2]; MRSA (11 strains), HEQ dose 200 mg × 3 days): −0.9 Log CFU/thigh; Mean Log CFU/thigh from baseline ([2]; MRSA (11 strains), HEQ dose 1200 mg × 1 day): −2.8 Log CFU/thigh; ED50 ([2]; Staphylococcus aureus, single IV dose 1 h post-infection, 24 h readout, NRS123 (MRSA), neutropenic CD-1 mice, 95% CI in brackets, read-out: ED50 (dose resulting in 50% of the maximal killing)): 2.4 mg/kg; ED50 (dose resulting in 50% of the maximal killing) ([2]; single IV dose 1 h post-infection, 24 h readout, NRS123 (MRSA), neutropenic CD-1 mice, 95% CI in brackets): 2.4 (0.8-7.3) mg/kg; MIC90 (S. aureus): 0.12 µg/mL (≈ 0.0669 µM); MIC90 (MSSA): 0.12 µg/mL (≈ 0.0669 µM); MIC90 (MRSA): 0.12 µg/mL (≈ 0.0669 µM)
